In patent US12251387B2, “Substituted quinoxalines and benzo[c][1,2,5]oxadiazoles as DNA-PK inhibitors” (Vertex Pharmaceuticals Incorporated, priority 2013, dated 2025):

biological target: DNA-PK (Homo sapiens, UniProt P78527); assay: DNA-PK Inhibition Assay (standard radiometric kinase assay, 33P-ATP, peptide substrate); assay type: biochemical; details: radiometric assay, approximately 6 nM DNA-PK, 100 μM ATP, 45 min; fit to competitive tight-binding inhibition; read-out: Ki for the inhibition of DNA-PK
Description: Compounds were screened for their ability to inhibit DNA-PK kinase using a standard radiometric assay. Briefly, in this kinase assay the transfer of the terminal ^33P-phosphate in ^33P-ATP to a peptide substrate is interrogated. The assay was carried out in 384-well plates to a final volume of 50 μL per well containing approximately 6 nM DNA-PK, 50 mM HEPES (pH 7.5), 10 mM MgCl2, 25 mM NaCl, 0.01% BSA, 1 mM DTT, 10 μg/mL sheared double-stranded DNA (obtained from Sigma), 0.8 mg/mL DNA-PK peptide (Glu-Pro-Pro-Leu-Ser-Gln-Glu-Ala-Phe-Ala-Asp-Leu-Trp-Lys-Lys-Lys, obtained from American Peptide), and 100 μM ATP. Accordingly, compounds of the invention were dissolved in DMSO to make 10 mM initial stock solutions. Serial dilutions in DMSO were then made to obtain the final solutions for the assay. A 0.75 μL aliquot of DMSO or inhibitor in DMSO was added to each well, followed by the addition of ATP substrate solution containing ^33P-ATP (obtained from Perkin Elmer). The reaction was started by the addition of DNA-PK, peptide and ds-DNA. After 45 min, the reaction was quenched with 25 μL of 5% phosphoric acid. The reaction mixture was transferred to MultiScreen HTS 384-well PH plates (obtained from Millipore), allowed to bind for one hour, and washed three times with 1% phosphoric acid. Following the addition of 50 μL of Ultima Gold™ high efficiency scintillant (obtained from Perkin Elmer), the samples were counted in a Packard TopCount NXT Microplate Scintillation and Luminescence Counter (Packard BioScience). The Ki values were calculated using Microsoft Excel Solver macros to fit the data to the kinetic model for competitive tight-binding inhibition.

SMILES	Ki [nM]
OC1(c2cnc(N[C@H]3CC[C@@H](Oc4cc(N5CCOCC5)cc5nccnc45)CC3)nc2)COC1 [Compound 610]	< 100
Cc1nccc(N[C@H]2CC[C@@H](Oc3cc(N4CC5CC(C4)O5)cc4nccnc34)CC2)n1 [Compound 353]	< 100
c1cc(CN2CCCCC2)nc(N[C@H]2CC[C@@H](Oc3cc(N4CCOCC4)cc4nccnc34)CC2)n1 [Compound 504]	< 100
COc1nc(Cl)nc(N[C@H]2CC[C@@H](Oc3cc(N4CCOCC4)cc4nccnc34)CC2)n1 [Compound 609]	< 100
CCOc1cccc(N[C@H]2CC[C@@H](Oc3cc(N4CCOCC4)cc4nccnc34)CC2)n1 [Compound 588]	< 100
CN(C)CCOc1ccc(N[C@H]2CC[C@@H](Oc3cc(N4CCOCC4)cc4nccnc34)CC2)nc1 [Compound 654]	< 100
O=C1Cc2c(ncnc2N[C@H]2CC[C@@H](Oc3cc(N4CCOCC4)cc4nccnc34)CC2)N1 [Compound 502]	< 100
c1cnc2c(O[C@H]3CC[C@@H](Nc4ncc(CN5CCCC5)cn4)CC3)cc(N3CCOCC3)cc2n1 [Compound 528]	< 100
CNC(=O)c1cc(N[C@H]2CC[C@@H](Oc3cc(N4CCOCC4)cc4nccnc34)CC2)ccc1F [Compound 405]	< 100
Cc1nc2c(c(N[C@H]3CC[C@@H](Oc4cc(N5CCOCC5)cc5nccnc45)CC3)n1)OCC2 [Compound 403]	< 100
O=C(O)c1cc(N[C@H]2CC[C@@H](Oc3cc(N4CCOCC4)cc4nccnc34)CC2)ccc1F [Compound 420]	< 100
COCc1cc(N[C@H]2CC[C@@H](Oc3cc(N4CCOCC4)cc4nccnc34)CC2)nc(C)n1 [Compound 616]	< 100
c1cnc2c(O[C@H]3CC[C@@H](Nc4ccc5c(n4)OCCO5)CC3)cc(N3CCOCC3)cc2n1 [Compound 631]	< 100
c1cnc2c(O[C@H]3C[C@@H](Nc4ncnc5ccoc45)C3)cc(N3CCOCC3)cc2n1 [Compound 356]	< 100
Fc1cccnc1N[C@H]1CC[C@@H](Oc2cc(N3CCOCC3)cc3nccnc23)CC1 [Compound 591]	< 100
Cn1ccc2c(N[C@H]3CC[C@@H](Oc4cc(N5CCOCC5)cc5nccnc45)CC3)ncnc21 [Compound 384]	< 100
O=C(O)c1cc(N[C@H]2CC[C@@H](Oc3cc(N4CCOCC4)cc4nccnc34)CC2)ncn1 [Compound 653]	< 100
Cc1cnc(N[C@H]2CC[C@@H](Oc3cc(N4CCOCC4)cc4nccnc34)CC2)c(C)n1 [Compound 323]	< 100
CN1CCN(c2ccnc(N[C@H]3CC[C@@H](Oc4cc(N5CCOCC5)cc5nccnc45)CC3)n2)CC1 [Compound 547]	< 100
CN1CCN(c2ccc(N[C@H]3CC[C@@H](Oc4cc(N5CCOCC5)cc5nccnc45)CC3)nc2)CC1 [Compound 626]	< 100
CN(C)CCOc1ncnc(N[C@H]2CC[C@@H](Oc3cc(N4CCOCC4)cc4nccnc34)CC2)c1F [Compound 362]	< 100
Cc1nccc(N[C@H]2CC[C@@H](Oc3cc(C4=CCOCC4)cc4nccnc34)CC2)n1 [Compound 352]	< 100
Cc1ncc(C)c(N[C@H]2CC[C@@H](Oc3cc(N4CCOCC4)cc4nccnc34)CC2)n1 [Compound 490]	< 100
c1cnc2c(O[C@H]3CC[C@@H](Nc4ccc(OC5COC5)cn4)CC3)cc(N3CCOCC3)cc2n1 [Compound 638]	< 100
c1cnc2c(O[C@H]3CC[C@@H](Nc4ccn5nccc5n4)CC3)cc(N3CCOCC3)cc2n1 [Compound 498]	< 100
COc1c(Cl)ncnc1N[C@H]1CC[C@@H](Oc2cc(N3CCOCC3)cc3nccnc23)CC1 [Compound 402]	< 100
Cc1nccc(N[C@H]2CC[C@@H](Oc3cc(N4CCO[C@H](CO)C4)cc4nccnc34)CC2)n1 [Compound 320]	< 100

SMILES	Ki [nM]
Cn1nnnc1-c1cnc(N[C@H]2CC[C@@H](Oc3cc(N4CCOCC4)cc4nccnc34)CC2)nc1 [Compound 459]	< 100
c1nc(N[C@H]2CC[C@@H](Oc3cc(N4CCOCC4)cc4nccnc34)CC2)cc(C2CC2)n1 [Compound 650]	< 100
FC(F)(F)c1ncc(N[C@H]2CC[C@@H](Oc3cc(N4CCOCC4)cc4nccnc34)CC2)cn1 [Compound 428]	< 100
CN(C)CCOc1cnc(N[C@H]2CC[C@@H](Oc3cc(N4CCOCC4)cc4nccnc34)CC2)nc1 [Compound 624]	< 100
O=C(N[C@H]1CC[C@@H](Oc2cc(N3CCOCC3)cc3nccnc23)CC1)N1CCCC1 [Compound 415]	< 100
Oc1nccc(N[C@H]2CC[C@@H](Oc3cc(N4CCOCC4)cc4nccnc34)CC2)n1 [Compound 280]	< 100
c1nc2c(c(N[C@H]3CC[C@@H](Oc4cc(N5CCOCC5)cc5nccnc45)CC3)n1)OCC2 [Compound 464]	< 100
CSc1nc(N[C@H]2CC[C@@H](Oc3cc(N4CCOCC4)cc4nccnc34)CC2)cs1 [Compound 628]	< 100
CN(C)c1ncnc(N[C@H]2CC[C@@H](Oc3cc(N4CCOCC4)cc4nccnc34)CC2)c1F [Compound 512]	< 100
CN1CCN(CCc2cnc(N[C@H]3CC[C@@H](Oc4cc(N5CCOCC5)cc5nccnc45)CC3)nc2)CC1 [Compound 430]	< 100
COc1cncnc1N[C@H]1CC[C@@H](Oc2cc(N3CCOCC3)cc3nccnc23)CC1 [Compound 438]	< 100
OCc1ccnc(N[C@H]2CC[C@@H](Oc3cc(N4CCOCC4)cc4nccnc34)CC2)c1 [Compound 615]	< 100
Cc1nnc2c(N[C@H]3CC[C@@H](Oc4cc(N5CCOCC5)cc5nccnc45)CC3)nccn12 [Compound 310]	< 100
CNC(=O)c1cnc(N[C@H]2CC[C@@H](Oc3cc(N4CCOCC4)cc4nccnc34)CC2)nc1C [Compound 287]	< 100
CNC(=O)c1cc(N[C@H]2CC[C@@H](Oc3cc(N4CC5CC(C4)O5)cc4nccnc34)CC2)ncn1 [Compound 315]	< 100
Cc1nc(C)c(F)c(N[C@H]2CC[C@@H](Oc3cc(N4CCOCC4)cc4nccnc34)CC2)n1 [Compound 463]	< 100
CC(C)NC(=O)c1cc(N[C@H]2CC[C@@H](Oc3cc(N4CCOCC4)cc4nccnc34)CC2)ncn1 [Compound 643]	< 100
CCN(CC)C(=O)N[C@H]1CC[C@@H](Oc2cc(N3CCOCC3)cc3nccnc23)CC1 [Compound 413]	< 100
c1cnc2c(O[C@H]3CC[C@@H](Nc4ncc(CCN5CCOCC5)cn4)CC3)cc(N3CCOCC3)cc2n1 [Compound 434]	< 100
Clc1ccc(N[C@H]2CC[C@@H](Oc3cc(N4CCOCC4)cc4nccnc34)CC2)nn1 [Compound 40]	< 100
CC1(C)OCc2cc(N[C@H]3CC[C@@H](Oc4cc(N5CCOCC5)cc5nccnc45)CC3)cnc21 [Compound 571]	< 100
OCCN1CCN(c2cc(N[C@H]3CC[C@@H](Oc4cc(N5CCOCC5)cc5nccnc45)CC3)ncn2)CC1 [Compound 499]	< 100
Cc1noc(-c2ccc(N[C@H]3CC[C@@H](Oc4cc(N5CCOCC5)cc5nccnc45)CC3)nc2)n1 [Compound 278]	< 100
COCCOc1ccnc(N[C@H]2CC[C@@H](Oc3cc(N4CCOCC4)cc4nccnc34)CC2)n1 [Compound 558]	< 100
c1cnc2c(O[C@H]3CC[C@@H](Nc4ccnc5[nH]ccc45)CC3)cc(N3CCOCC3)cc2n1 [Compound 385]	< 100
COc1ncnc(N[C@H]2CC[C@@H](Oc3cc(N4CCOCC4)cc4nccnc34)CC2)c1F [Compound 376]	< 100
